# Test results published in patent US20240336556A1, “R-KETAMINE SALTS AND METHODS OF USE THEREOF” (Perception Neuroscience, Inc., priority 2021, published 2024).
# Where two headings read alike, the source gives them in different places.
# How the values were obtained:
# [1] = HPLC precise solubility determination of R-ketamine salts in water at 25° C., with pH of the saturated solution; settings: for Initial pH / pH after 24 hours: saturated solution in water, pH determined at 24° C.; for solubility / solubility in water: 25° C.; for solubility: equilibrated one day, HPLC of the saturated solution, values marked * may be underestimated; for solubility in water: one day equilibration, HPLC
# Procedure: 50 mg of R-ketamine saccharin salt was suspended in 0.5 mL of water, and the suspension was equilibrated (700 rpm) at 25° C. for one day. 10 to 15 mg of R-ketamine fumarate salt and R-ketamine oxalate salt were also equilibrated in 0.5 mL of water at 25° C. for one day.
# [2] = Dynamic vapor sorption (DVS) and classification of hygroscopicity; type: physicochemical; settings: for solid form of the sample after DVS: PXRD or FT-Raman on solid recovered after the DVS test; for reversibility of water sorption: under the test conditions
# Procedure: DVS measurements were performed with an SPS11-100n “Sorptions Prüfsystem” from ProUmid (formerly “Projekt Messtechnik”), August-Nagel-Str. 23, 89079 Ulm (Germany). About 5-20 mg of sample were put into an aluminum sample pan. Humidity change rates of […] were used. The applied measurement program is described as follows:
# The sample was placed on an aluminum or platinum holder on top of a microbalance and allowed to equilibrate at 50% RH before starting the pre-defined humidity programs: • (1) 2 h at 50% RH • (2) 50→0% RH (5%/h); 5 h at 0% RH • (3) 0→95% RH (5%/h); 5 h at 95% RH • (4) 95→0% RH (5%/h); 5 h at 0% RH • (5) 0→95% RH (5%/h); 5 h at 95% RH • (6) 95→50% RH (5%/h); 2 h at 50% RH
# The hygroscopicity was classified based on the mass gain at 85% RH relative to the initial mass as follows: deliquescent (sufficient water adsorbed to form a liquid), very hygroscopic (mass increase of ≥15%), hygroscopic (mass increase <15% but ≥2%), slightly hygroscopic (mass increase <2% but ≥0.2%), or non-hygroscopic (mass increase <0.2%).
# [3] = Approximate solubility determination (small aliquots of solvent added to ~10 mg of solid, ambient conditions); type: physicochemical; settings: thermodynamic from solid, approximation
# Procedure: Approximate solubilities were determined for the R-ketamine free base. […] These values are only approximations.
# [4] = Approximate solubility in 20% (w/w) aqueous (2-Hydroxypropyl)-Beta-cyclodextrin solution and in 20% (w/w) cyclodextrin in buffer pH 7, with pH of the solutions; settings: for Approximate Solubility: ambient conditions, visual estimate
# Procedure: These values were determined by adding small aliquots of solvent or solvent mixture to ˜10 mg of solid and shaking/sonicating for a short period of time at ambient conditions. The solubilities were estimated by visual observations. These values are only approximations. Table 20 summarized the obtained solubility values, and the pH of the resulting solutions.
# [5] = water, at 23° C.
# [6] = Storage in a closed vial at ambient conditions, reanalysis by PXRD; type: physicochemical
# Procedure: Stoe Stadi P equipped with a Mythen1K Detector; Cu-Kα1 radiation; standard measurement conditions: transmission; 40 kV and 40 mA tube power; curved Ge monochromator; 0.02°2θ step size, 48 s step time, 1.5-50.5°2θ scanning range; detector mode: step scan; 1 °2θ detector step; standard sample preparation: 10 to 20 mg sample was placed between two acetate foils; sample holder: Stoe transmission sample holder; the sample was rotated during the measurement. All sample preparation and measurement was done in an ambient air atmosphere.
# [7] = Precise solubility tests of R-ketamine fumarate salt Form A in aqueous media at adjusted pH (HPLC); settings: for solubility: aqueous, equilibrated one day, HPLC
# [8] = obtained solution in 20% (w/w) aqueous cyclodextrin, measured at 24° C.
# [9] = obtained solution in 20% (w/w) cyclodextrin in buffer pH 7, measured at 24° C.
# [10] = DVS, above 70% relative humidity
structure (smiles),measurement,setting,value
CN[C@@]1(c2ccccc2Cl)CCCCC1=O.O=C(O)C(=O)O [R-ketamine oxalate salt],Initial pH,[1]; after 3 h,5.6 (after 3 h)
same,pH after 24 hours,[1],5.7
same,solubility,[1]; water,19.2* mg/mL
same,solubility in water,[1]; water,higher than the solubility of the R-ketamine saccharin salt
same,pH of the saturated solution,"[1]; water, after one day stirring, pH measured at 24° C.",5.7
same,hygroscopicity class,[2]; DVS,very hygroscopic (very hygroscopic (mass increase of ≥15%))
same,solid form of the sample after DVS,[2],dramatically loss of crystallinity was observed
"CN[C@@]1(c2ccccc2Cl)CCCCC1=O [R-ketamine free base, (2R)-2-(2-chlorophenyl)-2-(methylamino)cyclohexan-1-one]",solubility,"[3]; aqueous with cosolvent or surfactant or cyclodextrin, 20% (2-hydroxypropyl)-beta-cyclodextrin in water",1.4 to 1.7 mg/mL
same,solubility,"[3]; organic solvent or mixture, 1-propanol",60 to 79 mg/mL
same,solubility,"[3]; organic solvent or mixture, 2-propanol",37 to 44 mg/mL
same,solubility,"[3]; organic solvent or mixture, Acetone",111 to 222 mg/mL
same,solubility,"[3]; organic solvent or mixture, Acetonitrile",89 to 133 mg/mL
same,solubility,"[3]; organic solvent or mixture, Ethanol",62 to 83 mg/mL
same,solubility,"[3]; organic solvent or mixture, Ethyl acetate",115 to 230 mg/mL
same,solubility,"[3]; organic solvent or mixture, Heptane",5 to 9 mg/mL
same,solubility,"[3]; organic solvent or mixture, Methanol",120 to 240 mg/mL
same,solubility,"[3]; organic solvent or mixture, THF",> 288 mg/mL
same,solubility,[3]; Water,< 1 mg/mL
same,solubility,"[4]; 20% (w/w) (2-hydroxypropyl)-beta-cyclodextrin in buffer pH 7, pH 7, aqueous with cosolvent or surfactant or cyclodextrin, thermodynamic from solid",2 to 2.5 mg/mL
same,solubility,"[4]; aqueous with cosolvent or surfactant or cyclodextrin, thermodynamic from solid",1.5 to 1.7 mg/mL
same,pH,[4]; [8],8.5
same,pH,[4]; [9],7.1
CN[C@@]1(c2ccccc2Cl)CCCCC1=O.O=C(O)C(O)C(O)C(=O)O [R-ketamine D-tartrate salt Form C],water content reached,[2]; [10],about 8.3%
same,reversibility of water sorption,[2]; DVS,irreversible
same,pH of the suspension,[5]; after 24 hours of stirring,3.42
same,pH of the suspension,[5]; after one hour,3.48
"CNC1(c2ccccc2Cl)CCCCC1=O.Cl (centres unmarked) [R-ketamine hydrochloride salt, reference compound]",solubility,[4]; aqueous 20% (2-hydroxypropyl)-beta-cyclodextrin solution,*The solubility of the HCl R-ketamine salt was over 100 mg/mL in aqueous 20% (2-hydroxypropyl)-beta-cyclodextrin solution.
CN[C@@]1(c2ccccc2Cl)CCCCC1=O.O=C(O)/C=C/C(=O)O [R-ketamine fumarate salt Form B],solid form after storage (PXRD),"[6]; 11 months, ambient condition",a mixture of the R-ketamine fumarate salt Form A and B (about 1:1)
CN[C@@]1(c2ccccc2Cl)CCCCC1=O.O=C1NS(=O)(=O)c2ccccc21 [R-ketamine saccharin salt],Initial pH,[1]; after 1 h,4.2 (after 1 h)
same,pH after 24 hours,[1],4.0
same,solubility,[1]; water,6.64 mg/mL
same,solubility in water,[1]; water,6.6 mg/mL
same,hygroscopicity class,[2]; DVS,non-hygroscopic (non-hygroscopic (mass increase <0.2%))
same,solid form of the sample after DVS,[2],no change in the solid form was observed
same,Approximate Solubility,[4]; 20% (w/w) aqueous cyclodextrin,28~37 mg/mL
same,Approximate Solubility,[4]; 20% (w/w) cyclodextrin in buffer pH 7 solution,26~35 mg/mL
same,pH,[4]; [8],5
same,pH,[4]; [9],6.3
CN[C@@]1(c2ccccc2Cl)CCCCC1=O.O=C(O)C(O)C(O)C(=O)O [R-ketamine D-tartrate salt Form A],solid form after storage (PXRD),"[6]; 13 months, ambient conditions",corresponding to R-ketamine D-tartrate salt Form A
same,additional water uptake,[2]; [10],about 3%
same,reversibility of water sorption,[2]; DVS,irreversible
CN[C@@]1(c2ccccc2Cl)CCCCC1=O.CN[C@@]1(c2ccccc2Cl)CCCCC1=O.O=C(O)/C=C/C(=O)O [R-ketamine fumarate salt Form A],Initial pH,[1]; after 3 h,4.1 (after 3 h)
same,pH after 24 hours,[1],4.1
same,solubility,[1]; water,17.7* mg/mL
same,solubility in water,[1]; water,higher than the solubility of the R-ketamine saccharin salt
same,solubility,"[7]; pH 5.23, r.t.",304 mg/mL
same,solubility,"[7]; pH 6.14, r.t.",15.1 mg/mL
same,solubility,"[7]; pH 7.21, r.t.",1.76 mg/mL
same,pH on dissolution in pure water,"[7]; pure water, from approximate solubility tests",about 5.7
same,dependence of aqueous solubility on pH,"[7]; water adjusted to pH 5, 6, 7, one day at 25° C.",solubility rapidly deceases by increasing pH
same,reversibility of water sorption,[2]; DVS,lost all its water when the humidity is scanned back to 0% r.h.
same,solid form of the sample after DVS,[2],no change in the crystalline form was observed
CN[C@@]1(c2ccccc2Cl)CCCCC1=O.O=C(O)C(O)C(O)C(=O)O [R-ketamine D-tartrate salt Form D],additional water absorbed,"[2]; DVS, at high relative humidity",About 0.4%
CN[C@@]1(c2ccccc2Cl)CCCCC1=O.O=C(O)C(O)C(O)C(=O)O [R-ketamine D-tartrate salt Form B],solid form after storage (PXRD),"[6]; 12 months, ambient conditions",corresponding to R-ketamine D-tartrate salt Form B
same,water content reached,[2]; [10],about 8.5%
same,reversibility of water sorption,[2]; DVS,irreversible
